Laboratory results taken from patent publication US20230014352A1, “INHALED STATINS AS BRONCHODILATORS TO IMPROVE LUNG FUNCTION IN RESPIRATORY DISEASES” (priority 2019, published 2023).
Entries after “also recorded” stand apart in the source; their conditions may differ. Where two headings read alike, the source gives them in different places.

Key:
[1] = test system: primary human airway smooth muscle (ASM) cells; experiment: Contractile force screening (CFS), basal ASM cell contraction (strain energy); assay type: cell-based; settings: for strain energy (ASM contraction) / basal ASM cell contraction: 24 hours; for strain energy (ASM contraction): compared to pravastatin, FIG. 1C; for basal ASM cell contraction: FIG. 1A/1D
Protocol: Primary human airway smooth muscle (ASM) cells derived from both non-asthmatic and asthmatic donors were obtained from the Gift of Hope Organ and Tissue Donor Network. These cells have been well-characterized previously (see for example H. Yoshie et al., Biophys J (2018) 114(9):2194-99). All measurements were performed using cells at passage 5-8 from three non-asthmatic donors. Cells were grown on either 10% serum-containing F12 complete media, or serum-deprived media supplemented with insulin, transferrin, and selenium (Corning, Tewksbury, Mass.). Contractile Force Screening: Human ASM cells were grown to confluence in 96-well plates on custom NuSilTM 8100 elastic substrates (Avantor, Inc., Radnor, Pa.) (R. […] Fluorescent beads (diameter 400 nm) were embedded in the substrate surface to enable traction force calculations based on their displacements. To measure fractions, an inverted epi-fluorescence microscope (DMI 6000B, Leica Inc., Germany) equipped with a heated chamber (37° C.), a monochrome camera ([…]), and a motorized stage was used. Spatial images were recorded of substrate-embedded fluorescent beads at 10× magnification. Based on the bead displacements (resolution 15 μm) relative to a cell-free model, together with knowledge of substrate stiffness and thickness, fractions were computed using the approach of Fourier Transform Traction Cytometry ([…] et al., Pharmacol Ther (2014) 143(1):87-110), modified to the case of cell monolayers ([…] et al., Cell (2007) 129(3):511-22). From each fraction map, the root-mean-squared traction (RMST) value and strain energy were calculated and reported as a measure of normal contraction in the monolayer. On a well-by-well basis, the ratio of the strain energy after vs. before treatment was computed, and all values of a given treatment group were normalized to the mean of each treatment group. Comparison of Statins: […] MA is the immediate product of HMGCR action on HMB-CoA, so addition of MA would reverse the effect of statin inhibition of HMGCR. […] Simvastatin-acid (SA), atorvastatin, pravastatin, and pitavastatin were examined with CFS to determine the dose response of the ASM relaxation effect. […] From each ASM force map, the strain energy (i.e., the energy that is imparted to the substrate by the contractile cells, in pJ) was computed, to represent the average cellular contraction.

ASM cells [2] = experiment: Simulated deep breath (stretch-unstretch), cell mapping rheometry and CFS; assay type: cell-based, human; settings: 10 μM, 30 min
Protocol: Well-defined biaxial stretch (4 sec duration, 10% magnitude) was imposed using the method of cell mapping rheometry. The strain energy from each ASM force map was computed as a metric of average cellular contraction, and reported as fold changes to the pre-stretch baseline value.
Normal ASM was treated with pitavastatin (1 μM, 24 hrs, n=7), isoproterenol (10 μM, 30 min, n=6) or vehicle (n=7), and examined by CFS as described above. […] Shown are contraction values normalized to the untreated control group. […] The contraction force gradually recovered over 180 seconds. […] All data are reported as mean and standard error of the mean (SEM).

[3] = test system: precision-cut human lung slices; experiment: Histamine-induced bronchoconstriction in precision-cut human lung slices, pitavastatin and isoproterenol; settings: 30 μM for 30 min after histamine 10 μM 15 min; FIG. 13
Protocol: The experiment was performed under serum-deprived media conditions, n=3-7 airways per group. Changes in lumen narrowing were reported as percentage changes (±SEM) of the pre-treatment state (see FIG. 13). The absolute value of lumen airway area was not statistically different between the pitavastatin and control groups at the pre-treatment state.

ASM cells [4] = experiment: RealTime-Glo Annexin V Apoptosis and Necrosis assay; assay type: cell-based, human
Protocol: Lack of apoptosis: Some studies have shown that statins at high enough doses can reduce the viability of vascular smooth muscle cells, epithelial cells, and endothelial cells (S. Ghavami et al., Biochim Biophys Acta (2014) 1843(7):1259-71; T. P. Miettinen et al., Cell Rep (2015) 13(11):2610-20).
RealTime-Glo™ Annexin V Apoptosis and Necrosis assay was performed by growing ASM cells on 96-well white cell culture plate according to the manufacturer's instructions (Promega Inc). […] In this real-time annexin V binding assay, the luminescence signal was detected for apoptosis and necrosis was detected with a fluorescence signal by using a SpectraMax® plate reader. […] (20 μg/mL) was used as a positive control (FIG. 2).

[5] = Tissue distribution of inhaled (nebulized) simvastatin, mass spectrometry; settings: day 12, organs collected after euthanasia

## CC(C)c1c(C(=O)Nc2ccccc2)c(-c2ccccc2)c(-c2ccc(F)cc2)n1CC[C@@H](O)C[C@@H](O)CC(=O)O [atorvastatin]
[1]; 2 and 10 μM
  strain energy (ASM contraction): significantly (and further) reduce strain energy

## CC(C)NCC(O)c1ccc(O)c(O)c1 (centres unmarked) [isoproterenol]
ASM cells [2]; FIG. 12A
  basal ASM contraction compared to untreated controls: significantly inhibited basal ASM contraction
ASM cells [2]; FIG. 12B
  augmentation of stretch-induced ASM force relaxation: not conferred; also recorded: notably absent
[3]
  histamine (Hist)-induced bronchoconstriction: reduced

## CC[C@H](C)C(=O)O[C@H]1C[C@H](O)C=C2C=C[C@H](C)[C@H](CC[C@@H](O)C[C@@H](O)CC(=O)O)[C@H]21 [pravastatin]
[1]; 0.4 μM
  strain energy (ASM contraction): no effect
ASM cells [4]
  apoptosis and necrosis (cell death): no evidence of apoptosis or cell death

## CC(C)c1nc(N(C)S(C)(=O)=O)nc(-c2ccc(F)cc2)c1/C=C/[C@@H](O)C[C@@H](O)CC(=O)O [rosuvastatin]
[1]; 1 μM
  basal ASM cell contraction: little to no effect
ASM cells [4]
  apoptosis and necrosis (cell death): no evidence of apoptosis or cell death

## CCC(C)(C)C(=O)O[C@H]1C[C@@H](C)C=C2C=C[C@H](C)[C@H](CC[C@@H](O)C[C@@H](O)CC(=O)O)[C@H]21 [simvastatin acid]
[1]; primary ASM cells from three different human donors, FIG. 3
  dose-dependent effect on ASM: dose-dependently relax ASM
[1]; time-dependent effects, FIG. 4C
  start of ASM relaxing effects: 4 h

## CCC(C)(C)C(=O)O[C@H]1C[C@@H](C)C=C2C=C[C@H](C)[C@H](CC[C@@H]3C[C@@H](O)CC(=O)O3)[C@H]21 [simvastatin]
[1]; 1 μM
  basal ASM cell contraction: more potent
[1]; 1 μM, serum-deprived media, FIG. 10B
  ASM contraction over time compared to control: reduced ASM contraction time-dependently
ASM cells [4]; statin doses tested, FIGS. 2B-E
  apoptosis and necrosis (cell death): no evidence of apoptosis or cell death
[5]
  tissue distribution: mostly present in the mainstem bronchi and the lower lobes
